Reference: patent US8906928B2, “Substituted pyrazolo-pyrrolo-pyridine-dione compounds” (ArQule, Inc., priority 2009, dated 2014)

Columns and labels:
NCI-H1299 = assay: MTS assay (cell growth inhibition), NCI-H1299; type: cell-based; conditions: NCI-H1299 cells, 72 hours incubation with test compound; concentration not given
Method in brief: (§1)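 First, seed 3000 cells per well in low-serum (1% FBS) DMEM and culture 18 h. Next, add compounds prepared at 300× in DMSO and diluted 1:40 in DMEM; incubate 72 h. Finally, add MTS/PMS for 4 h and measure absorbance at 492 nm.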

DLD-1 = assay: MTS assay (cell growth inhibition), DLD-1; type: cell-based; conditions: DLD-1 cells, 72 hours incubation with test compound; concentration not given
Method in brief: as §1

MDA-MB = assay: MTS assay (cell growth inhibition), MDA-MB; type: cell-based; conditions: MDA-MB cells, 72 hours incubation with test compound; concentration not given
Method in brief: as §1

PC-3 = assay: MTS assay (cell growth inhibition), PC-3; type: cell-based; conditions: PC-3 cells, 72 hours incubation with test compound; concentration not given
Method in brief: as §1

Kato III = assay: MTS assay (cell growth inhibition), Kato III; type: cell-based; conditions: Kato III cells, 72 hours incubation with test compound; concentration not given
Method in brief: as §1

PACA-2 = assay: MTS assay (cell growth inhibition), PACA-2; type: cell-based; conditions: PACA-2 cells, 72 hours incubation with test compound; concentration not given
Method in brief: as §1

Structure (SMILES) | melting point | MTS CELL KILL DATA (% INHIBITION) NCI-H1299 (NCI-H1299) | MTS CELL KILL DATA (% INHIBITION) DLD-1 (DLD-1) | MTS CELL KILL DATA (% INHIBITION) MDA-MB (MDA-MB) | MTS CELL KILL DATA (% INHIBITION) PC-3 (PC-3) | MTS CELL KILL DATA (% INHIBITION) Kato III (Kato III) | MTS CELL KILL DATA (% INHIBITION) PACA-2 (PACA-2)
N#Cc1ccc(CN2C(=O)c3cnc4[nH]ncc4c3C2=O)cc1 [Example 41, 4-[(6,8-dioxo-6,8-dihydropyrazolo[3,4-b]pyrrolo[3,4-d]pyridin-7(3H)-yl)methyl]benzonitrile] | 293 to 295 °C | – | – | – | – | – | –
O=C1c2cnc3[nH]ncc3c2C(=O)N1Cc1ccccc1-c1cccc(F)c1F [Example 141, 7-[(2′,3′-difluorobiphenyl-2-yl)methyl]pyrazolo[3,4-b]pyrrolo[3,4-d]pyridine-6,8(3H,7H)-dione] | 93 to 100 °C | – | – | – | – | – | –
O=C1c2cnc3[nH]nc(-c4ccccc4)c3c2C(=O)N1Cc1c(F)cccc1Cl [Example 169, 7-(2-chloro-6-fluorobenzyl)-1-phenylpyrazolo[3,4-b]pyrrolo[3,4-d]pyridine-6,8(3H,7H)-dione] | 224 to 228 °C | – | – | – | – | – | –
CC(c1ccccc1-c1ccccc1)N1C(=O)c2cnc3[nH]ncc3c2C1=O (centres unmarked) [Example 144, 7-(1-biphenyl-2-ylethyl)pyrazolo[3,4-b]pyrrolo[3,4-d]pyridine-6,8(3H,7H)-dione] | 161 to 163 °C | – | – | – | – | – | –
O=C1c2cnc3[nH]ncc3c2C(=O)N1CCc1ccccc1 [Example 2, 7-(2-phenylethyl)pyrazolo[3,4-b]pyrrolo[3,4-d]pyridine-6,8(3H,7H)-dione] | 237 to 239 °C | A (A = 80-100% INHIBITION) | A (A = 80-100% INHIBITION) | A (A = 80-100% INHIBITION) | A (A = 80-100% INHIBITION) | A (A = 80-100% INHIBITION) | A (A = 80-100% INHIBITION)
O=C1NC(=O)c2c1cnc1[nH]ncc21 [Example 1, pyrazolo[3,4-b]pyrrolo[3,4-d]pyridine-6,8(3H,7H)-dione] | 285 to 300 °C | – | – | – | – | – | –
N#Cc1cccc(CN2C(=O)c3cnc4[nH]nc(Br)c4c3C2=O)c1 [Example 142, 3-[(1-bromo-6,8-dioxo-6,8-dihydropyrazolo[3,4-b]pyrrolo[3,4-d]pyridin-7(3H)-yl)methyl]benzonitrile] | 283 to 285 °C | C (C = <50% INHIBITION) | C (C = <50% INHIBITION) | B (B = 50-79% INHIBITION) | A (A = 80-100% INHIBITION) | C (C = <50% INHIBITION) | C (C = <50% INHIBITION)
COc1ccc(OC)c(-c2ccccc2CN2C(=O)c3cnc4[nH]ncc4c3C2=O)c1 [Example 143, 7-[(2′,5′-dimethoxybiphenyl-2-yl)methyl]pyrazolo[3,4-b]pyrrolo[3,4-d]pyridine-6,8(3H,7H)-done] | 208 to 211 °C | C (C = <50% INHIBITION) | C (C = <50% INHIBITION) | A (A = 80-100% INHIBITION) | A (A = 80-100% INHIBITION) | C (C = <50% INHIBITION) | C (C = <50% INHIBITION)
O=C1c2cnc3[nH]ncc3c2C(=O)N1CC1CCNCC1 [Example 57, 7-(piperidin-4-ylmethyl)pyrazolo[3,4-b]pyrrolo[3,4-d]pyridine-6,8(3H,7H)-dione] | > 300 °C | – | – | – | – | – | –
CC(C)(C)OC(=O)N1CCC(CN2C(=O)c3cnc4[nH]ncc4c3C2=O)CC1 [Example 140, tert-butyl 4-[(6,8-dioxo-6,8-dihydropyrazolo[3,4-b]pyrrolo[3,4-d]pyridin-7(3H)-yl)methyl]piperidine-1-carboxylate] | 134 to 137 °C | C (C = <50% INHIBITION) | C (C = <50% INHIBITION) | A (A = 80-100% INHIBITION) | A (A = 80-100% INHIBITION) | C (C = <50% INHIBITION) | A (A = 80-100% INHIBITION)
N#Cc1ccccc1CN1C(=O)c2cnc3[nH]ncc3c2C1=O [Example 108, 2-[(6,8-dioxo-6,8-dihydropyrazolo[3,4-b]pyrrolo[3,4-d]pyridin-7(3H)-yl)methyl]benzonitrile] | 285 to 287 °C | – | – | – | – | – | –
O=C1c2cnc3[nH]ncc3c2C(=O)N1CCC1CCNCC1 [Example 70, 7-(2-piperidin-4-ylethyl)pyrazolo[3,4-b]pyrrolo[3,4-d]pyridine-6,8(3H,7H)-dione] | > 300 °C | – | – | – | – | – | –
COc1cccc(-c2ccccc2CN2C(=O)c3cnc4[nH]ncc4c3C2=O)c1 [Example 147, 7-[(3′-methoxybiphenyl-2-yl)methyl]pyrazolo[3,4-b]pyrrolo[3,4-d]pyridine-6,8(3H,7H)-dione] | 99 to 100 °C | – | – | – | – | – | –
O=C1c2cnc3[nH]ncc3c2C(=O)N1Cc1ccccc1-c1ccc(F)cc1F [Example 145, 7-[(2′,4′-difluorobiphenyl-2-yl)methyl]pyrazolo[3,4-b]pyrrolo[3,4-d]pyridine-6,8(3H,7H)-dione] | 199 to 200 °C | – | – | – | – | – | –
Cc1c(C)c(C)c(CN2C(=O)c3cnc4[nH]ncc4c3C2=O)c(C)c1C [Example 8, 7-(pentamethylbenzyl)pyrazolo[3,4-b]pyrrolo[3,4-d]pyridine-6,8(3H,7H)-dione] | – | C (C = <50% INHIBITION) | C (C = <50% INHIBITION) | B (B = 50-79% INHIBITION) | A (A = 80-100% INHIBITION) | C (C = <50% INHIBITION) | C (C = <50% INHIBITION)
CC(C)c1ccc(CN2C(=O)c3cnc4[nH]ncc4c3C2=O)cc1 [Example 14, 7-(4-isopropylbenzyl)pyrazolo[3,4-b]pyrrolo[3,4-d]pyridine-6,8(3H,7H)-dione] | – | C (C = <50% INHIBITION) | C (C = <50% INHIBITION) | A (A = 80-100% INHIBITION) | A (A = 80-100% INHIBITION) | B (B = 50-79% INHIBITION) | C (C = <50% INHIBITION)
CSc1cccc(-c2n[nH]c3ncc4c(c23)C(=O)N(CCc2ccccc2)C4=O)c1 [Example 159, 1-[3-(methylsulfanyl)phenyl]-7-(2-phenylethyl)pyrazolo[3,4-b]pyrrolo[3,4-d]pyridine-6,8(3H,7H)-dione] | – | A (A = 80-100% INHIBITION) | A (A = 80-100% INHIBITION) | A (A = 80-100% INHIBITION) | A (A = 80-100% INHIBITION) | A (A = 80-100% INHIBITION) | A (A = 80-100% INHIBITION)
Cc1cccc(N(CCC#N)CCN2C(=O)c3cnc4[nH]ncc4c3C2=O)c1 [Example 134, 3-{[2-(6,8-dioxo-6,8-dihydropyrazolo[3,4-b]pyrrolo[3,4-d]pyridin-7(3H)-yl)ethyl](3-methylphenyl)amino}propanenitrile] | – | C (C = <50% INHIBITION) | C (C = <50% INHIBITION) | C (C = <50% INHIBITION) | C (C = <50% INHIBITION) | C (C = <50% INHIBITION) | C (C = <50% INHIBITION)
CC(C)(C)c1ccc(CN2C(=O)c3cnc4[nH]ncc4c3C2=O)cc1 [Example 47, 7-(4-tert-butylbenzyl)pyrazolo[3,4-b]pyrrolo[3,4-d]pyridine-6,8(3H,7H)-dione,] | – | C (C = <50% INHIBITION) | C (C = <50% INHIBITION) | C (C = <50% INHIBITION) | C (C = <50% INHIBITION) | C (C = <50% INHIBITION) | C (C = <50% INHIBITION)
